Assay results: US10059694B2, “2-aminopyrimidine compound and pharmaceutical composition and use thereof” (Shanghai Institute of Materia Medica, Chinese Academy of …, priority 2014, dated 2018)

How the values were obtained:
EGFR^wt = target: T1, EGFR^wt (Homo sapiens, UniProt P00533); experiment: kinase inhibitory activity test (ELISA), EGFR^WT; format: biochemical; conditions: ATP 5 μM, 1 hour at 37° C.
T1 construct: purchased Millipore
In short: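 ELISA on poly(Glu,Tyr)4:1-coated plates; kinase reaction with 5 μM ATP (final) in 50 mM HEPES pH 7.4, 50 mM MgCl2, 5 mM MnCl2, 0.2 mM Na3VO4, 1 mM DTT, 1 h at 37° C. Phosphotyrosine detected via PY99/HRP and OPD at 490 nm; IC50 by four-parameter fit.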

[1] = system: human epidermal carcinoma A431 cell line; experiment: SRB proliferation assay, A431 cells; format: cell-based; conditions: A-431, SRB, 72 h, read-out: IC50 A431
In short: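 A431 cells in log phase are allowed to adhere for 24 h, then exposed to compound for 72 h in triplicate alongside DMSO controls. Cells are fixed with cold 10% TCA, stained with SRB, dye is solubilised in 10 mM Tris pH 10.5, and OD is read at 515 nm.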

[2] = system: phosphorylation of EGFR^T790M/L858R, AKT and ERK in NCI-H1975 cells; experiment: Western blot, EGFR phosphorylation and downstream signaling in NCI-H1975 cells; format: cell-based, human; conditions: FIG. 1
Protocol: (§1) The tests were performed using conventional Western Blot (immunoblotting test), as follows. A certain number of A431 cells and NCI-H1975 cells in the logarithmic growth phase were inoculated on 6-well plate and adherent cultured overnight in the incubator. Replaced with serum-free medium and starved for 24 h, a certain concentration of compound was added and reacted for 2 h. 50 ng/mL of EGF stimulating factor was added and reacted for 10 min. The cells were lysed with lysate and samples were collected, and then the samples were taken for SDS-PAGE electrophoresis. After electrophoresis, the protein was transferred to a nitrocellulose membrane by a semi-dry transfer system. The nitrocellulose membrane was placed in a blocking solution (5% skimmed milk diluted with TBS containing 0.1% Tween 20) for 2 h at room temperature, and then incubated overnight at 4° C. in a primary antibody solution (diluted with TBS containing 0.1% Tween 20 by 1:500). It was washed for three times with TBS containing 0.1% Tween 20 for 15 min each time. The membrane was placed in a secondary antibody solution (horseradish peroxidase labeled goat anti-rabbit IgG, diluted with TBS containing 0.1% Tween 20 by 1:2000) and reacted for 1 h at room temperature. After washed for three times as above, the membrane was dyed with ECL plus reagent and photoed using image Quant LAS 4000 camera.

[3] = system: phosphorylation of EGFR^wt in A431 cells; experiment: Western blot, EGFR phosphorylation in A431 cells; format: cell-based, human; conditions: FIG. 2
Protocol: as §1

T1 sequence (P00533 25-1210): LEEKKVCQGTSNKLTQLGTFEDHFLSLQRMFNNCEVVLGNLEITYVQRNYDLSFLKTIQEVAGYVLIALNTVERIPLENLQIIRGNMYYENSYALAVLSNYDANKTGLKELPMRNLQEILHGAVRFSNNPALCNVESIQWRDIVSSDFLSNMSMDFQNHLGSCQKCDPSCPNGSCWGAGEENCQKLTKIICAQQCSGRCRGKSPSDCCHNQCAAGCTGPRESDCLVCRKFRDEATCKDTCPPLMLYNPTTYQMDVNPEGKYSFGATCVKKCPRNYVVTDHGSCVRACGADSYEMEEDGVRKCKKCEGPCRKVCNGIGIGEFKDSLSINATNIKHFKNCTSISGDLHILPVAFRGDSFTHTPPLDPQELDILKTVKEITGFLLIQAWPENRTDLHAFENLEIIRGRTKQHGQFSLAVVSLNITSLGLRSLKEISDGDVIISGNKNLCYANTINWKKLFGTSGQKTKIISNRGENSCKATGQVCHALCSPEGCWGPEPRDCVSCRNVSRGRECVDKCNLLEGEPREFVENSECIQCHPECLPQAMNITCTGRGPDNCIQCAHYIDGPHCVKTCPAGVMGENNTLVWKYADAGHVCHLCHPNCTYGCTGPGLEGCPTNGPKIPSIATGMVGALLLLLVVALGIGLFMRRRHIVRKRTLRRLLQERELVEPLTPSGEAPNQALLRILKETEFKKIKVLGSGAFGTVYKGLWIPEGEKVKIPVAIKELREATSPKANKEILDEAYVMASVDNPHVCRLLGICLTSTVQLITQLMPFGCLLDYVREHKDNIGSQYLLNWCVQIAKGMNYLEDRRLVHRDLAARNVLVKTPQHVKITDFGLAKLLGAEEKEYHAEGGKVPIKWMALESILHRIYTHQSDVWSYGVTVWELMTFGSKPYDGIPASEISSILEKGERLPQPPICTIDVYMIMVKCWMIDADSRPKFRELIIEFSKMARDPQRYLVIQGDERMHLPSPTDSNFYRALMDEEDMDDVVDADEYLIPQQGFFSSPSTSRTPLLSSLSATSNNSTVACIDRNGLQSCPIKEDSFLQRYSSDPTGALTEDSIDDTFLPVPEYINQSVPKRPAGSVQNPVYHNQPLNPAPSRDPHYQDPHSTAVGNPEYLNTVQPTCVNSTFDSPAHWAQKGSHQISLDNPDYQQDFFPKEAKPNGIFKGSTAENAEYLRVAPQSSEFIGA

## C=CC(=O)Nc1cc(Nc2ncc(Cl)c(Nc3ccc4ccccc4c3)n2)c(OC)cc1N(C)CCN(C)C [CCB120067, N-((5-((5-chloro-4-((naphthalen-2-yl)amino))pyrimidin-2-yl)amino)-2-((N-methyl-N-dimethylaminoethyl)amino)-4-methoxyphenyl)acrylamide]
EGFR^wt
  IC50: 9.4 nM
[1]
  IC50: 134 nM
[2]; 2 h compound, EGF 50 ng/mL 10 min
  inhibition of phosphorylation of EGFR^T790M/L858R and activation of AKT and ERK: significantly inhibit
[2]; CCB120067 at 1 nM
  inhibitory activity on phosphorylated EGFR^T790M/L858R, Akt and Erk compared with CO1686: comparable or slightly better than that of CO1686 at 100 nM concentration
[3]
  inhibitory activity on phosphorylation of EGFR^wt: weaker
